For one assay, the target named is T1, ERRγ:RIP140 complex (Homo sapiens, UniProt P62508).
T1 construct: made in house; host or cells: E. coli BL21(DE3), pRSETa vector; RIP140 peptide synthesised by SynPep
T1 sequence (P62508 with tags, fused parts or gaps): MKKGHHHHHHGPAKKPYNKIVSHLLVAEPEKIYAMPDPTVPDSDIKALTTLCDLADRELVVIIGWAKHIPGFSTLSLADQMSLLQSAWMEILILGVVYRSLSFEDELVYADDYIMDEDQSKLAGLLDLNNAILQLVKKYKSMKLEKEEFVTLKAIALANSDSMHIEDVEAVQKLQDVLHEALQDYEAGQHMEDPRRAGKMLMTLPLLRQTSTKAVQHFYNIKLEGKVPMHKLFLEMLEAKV
The assay is described as follows: ERRγ:RIP140 FRET ligand sensing assay (LiSA). Format: biochemical. The settings on record: ERRγ LBD and RIP140 peptide, one to one ratio. The protocol:
Before using the buffer in the assay, 10 mM DTT was added to the appropriate amount of buffer.

Another assay deals with T2, ERRγ (Homo sapiens, UniProt P62508).
T2 construct: made in house; host or cells: E. coli BL21(DE3), pRSETa vector
T2 sequence (P62508 with tags, fused parts or gaps): T1 sequence (P62508 with tags, fused parts or gaps)
In words: ERRγ direct binding assay ([3H]-tamoxifen competition, SPA). To be noted: found using FRET assay and direct binding assay in conjunction with the homology model. The source says: The binding assay was developed with a different set of parameters than that of the LiSA assay. No common set of assay conditions is applicable to all nuclear receptors. Accordingly, parameters to be optimized included pH, detergents, carriers, and bead concentrations. By […] several variables at one time, a large number of conditions can be examined through the statistical capabilities of a program called JMP (SAS Institute, Cary N.C.). Multiple variables including, but not limited to, buffer, detergents, and carrier, were entered simultaneously Lnto the program with the goal being to increase specific counts while lowering non-specific counts.
The same ERRγ protein as set forth in Example 4 was used to develop the binding assay. The buffer for this system was prepared with 50 mM MOPS (pH 7), 50 mM KCl, and 1 mM EDTA, in 1 L of deionized water. This buffer was then filtered with the Corning (431205) filter system with a 0.22 μm cellulose Acetate filter. After filtering, 0.01% Tween20 was added. Before using the buffer in the assay, 10 mM DTT was added to the appropriate amount of buffer. Approximately 0.125 mg/ml SA-SPA beads (Wallac) were coated with 20 nM biotinylated ERRγ. […] These plates were then read on the Wallac Trilux scintillation counter.

For 4-hydroxytamoxifen, at ERRγ:RIP140 complex, the “dissociation of the receptor:cofactor interaction” value is on record as “caused this dissociation”. For the same compound, at ERRγ, the “ligand for ERRγ” value is reported as “ligands for ERPγ”. Consider `CC/C(=C(/c1ccc(OCCN(C)C)cc1)c1cccc(O)c1)c1ccccc1` [3-hydroxytamoxifen], for which the “ligand for ERRγ” value at ERRγ is reported as “ligands for ERPγ”.

Source of the values: patent US20050074765A1, “Methods for identifying and using modulators of estrogen related receptor gamma” (priority 2002, published 2005).
